Laboratory results reported in US8207137B2, “Method of inhibiting angiogenesis or invasion or formation of metastases” (INSERM, priority 2001, dated 2012).

What was measured:
CPAE cells = assay: Model of endothelial cell migration (agarose, 24-well plates); format: cell-based, bovine
Description: The migration model was implemented in 24-well plates. 1.5% agarose was dissolved in the culture medium to form a gel in the wells. Half of an agarose cylinder was then inserted in a well. The CPAE cells were added to the free space left in the well and cultured until their confluence. The piece of agarose was then removed to allow the cells to migrate and AMEP was added, at the desired concentrations, to the culture medium. Then, a transparent graph paper was placed under the plate to determine the migration rate of the cells using an ocular micrometer under reverse microscope. The experiments were performed in duplicate and repeated three times. The results were expressed in percentage in relation to the control.

3T3 = assay: Cell proliferation, tritiated thymidine incorporation; format: cell-based; conditions: 3T3, murine fibroblasts, mean±SEM
Description: (§1) The cells were cultured at the rate of 20,000 cells per well (96-well plate, Greiner) in the complete medium. After 24 h, the cells were cultured in a medium containing a concentration lower by half than that corresponding to the complete medium to induce the cell in phase G0/G1 of proliferation for 24 supplementary hours. The cells were then cultured for 30 h with complete medium in the presence or without the presence of AMEP. Tritiated thymidine (1 μCi per well) was then added to the cells and incubated for 18 hours. Incorporation of the tritiated thymidine by the cells was quantified by filter paper according to the protocol described for the use of a Skatron (Skatron, Lier, Norway). Radioactivity was then determined by counting after addition of scintillation liquid. The results were expressed as a percentage in relation to the control.

C51 = assay: as above; format: cell-based; conditions: C51, murine cancer cells, mean±SEM
Description: as §1

AMEP: disintegrin domain of human metargidin (Met-420 to Glu-511, SEQ ID NO. 2), 91 amino acids, 9.7 kDa; recombinant or expressed in vivo by gene electrotransfer
number of dead endothelial cells (floating in the culture medium) (CPAE cells; 10 μg/ml, phase-contrast microscope (FIG. 3)): augmentation of the number of dead endothelial cells | inhibition of cell migration (CPAE cells; CPAE, 10 μg/ml): complete inhibition | effect on the displacement rate of the cells (CPAE cells; CPAE, 2-10 μg/ml): dose dependent | % inhibition of cell proliferation by AMEP (5 μg/ml) (3T3): 9.1 ± 2.2% | % inhibition of cell proliferation by AMEP (5 μg/ml) (C51): 0.5 ± 1.1%
